In patent US11932633B2, “KRas G12C inhibitors” (Mirati Therapeutics, Inc., priority 2018, dated 2024):

Key:
KRas G12C [1] = molecular target: T1, KRas G12C (Homo sapiens, UniProt P01116, C118S/C51S/C80L/G12C); assay: KRas G12C Modification Assay (LCMS detection of covalent adduct); format: binding; conditions: 5 μM concentration for 3 hours
T1 construct: GDP-loaded K-Ras (1-169) G12C, C51S, C80L, C118S
Procedure: This Example illustrates that exemplary compounds of the present invention covalently bind to KRas G12C using a LCMS assay to detect a covalent adduct of the exemplary compound and KRAS G12C.
The protein concentration of GDP-loaded K-Ras (1-169) G12C, C51S, C80L, C118S and GTP-loaded K-Ras (1-169) G12C, C51S, C80L, C118S, Q61H was adjusted to 2 μM in K-Ras Assay Buffer (25 mM HEPES, 150 mM NaCl, 5 mM MgCl2, and 10 mM Octyl β-glucopyranoside at pH 7.5). A 10 μL aliquot of each protein solution was transferred to a 384 well microtiter plate. Initial compound stocks were generated at fifty times their desired final assay concentration in DMSO.
Exemplary compounds of formula (I) were diluted 25-fold into K-Ras Assay Buffer to a final of two times their final concentration. A 10 μL aliquot of each diluted compound solution was added to each of the protein solutions in the microtiter plate to initiate reaction. Typical final compound concentrations were 3.0, 5.0 and 25.0 μM. At each time point, the reactions were quenched with 20 μL of a 25 mM acetic acid solution. Usual assay endpoints were 15, 180 and 1440 minutes. Once all reactions were quenched, the plates were heat sealed and the samples were injected into a LC/MS system for data acquisition.
Data collection took place on an Agilent 6520 Q-TOF Accurate Mass Spectrometer. Samples were injected in their liquid phase onto a C-3 reverse phase column to remove assay buffer and prepare the samples for mass spectrometer. The proteins were eluted from the column using an acetonitrile gradient and fed directly into the mass analyzer. Initial raw data analysis took place in Agilent MassHunter software immediately post data acquisition.
Raw data analysis of the intact protein was exclusively a deconvolution of the multiple charge states of each protein in solution using a maximum entropy deconvolution provided in Mass Hunter. To minimize complexity, only the data over limited mass ranges were considered for analysis, with a minimum of one Dalton mass step intervals. The heights of all masses identified during raw data analysis were exported to be further analyzed in Spotfire® data analysis software.
Final data analysis was a multistep process in the Spotfire® data analysis software package. Briefly, each protein mass was calculated as a percent of the total signal of that sample, that percentage was normalized to the percentage of signal of the protein in the absence of reactive compounds. Those normalized signals were reported as normalized percent of control (POC). […] Key: N.D. is not determined.

KRas G12C [2] = molecular target: T2, KRas G12C (Homo sapiens, UniProt P01116, G12C); assay: Cellular inhibition of KRas G12C measured by Phospho-ERK in NCI-11358 cells; format: cell-based; conditions: NCI-11358 cells (ATCC CRL-5807), 3 hours; read-out: Inhibition (IC50, pERK (Thr202/Tyr204) signal normalized with GAPDH)
T2 construct: NCI-11358 cells (ATCC CRL-5807) express KRas G12C; host or cells: NCI-H358
Procedure: The cellular inhibition of KRAs G12C by exemplary compounds of the present invention was determined by measuring the amount of a downstream marker of KRas activity, phosphorylated ERK (“Phospho-ERK”).
NCI-11358 cells (ATCC CRL-5807) express KRas G12C and were grown in RPMI medium supplemented with 10% fetal bovine serum, penicillin/streptomycin and 10 mM HEPES. Cells were plated in poly-D-Lysine coated 96-well plates at a concentration of 50,000 cells/well and allowed to attach for 8-12 hours. Diluted compounds were then added at a final concentration of 0.5% DMSO. After 3 hours, the medium was removed, 150 μL of 4% formaldehyde was added and the plates were incubated for 20 minutes. The plates were washed with PBS, and permeabilized using 150 μL of ice cold 100% methanol for 10 minutes. Non-specific antibody binding to the plates was blocked using 100 μL Licor Blocking Buffer (Li-Cor Biotechnology, Lincoln NE) for 1 hour at room temperature. Positive control samples and samples lacking cells were parallel processed with test samples as standards.
The amount Phospho-ERK was determined using an antibody specific for the phosphorylated form of ERK and compared to the amount of GAPDH. Primary antibodies used for detection were added as follows: Phospho-ERK (Cell Signaling cs9101) diluted 1:500 and GAPDH (Millipore MAB374) diluted 1:5000 in Licor block+0.05% Tween 20. The plates were incubated for 2 hours at room temperature. The plates were washed with PBS+0.05% Tween 20.
Secondary antibodies used to visualize primary antibodies were added as follows: Anti-rabbit-680 diluted 1:1000 and Anti-mouse-800 diluted 1:1000 in Licor Block+0.05% Tween 20 and incubated for 1 hour at room temperature. The plates were washed with PBS+0.05% Tween 20. A 100 μL aliquot of PBS was added to each well and the plates were read on a LICOR AERIUS plate reader.
The pERK (Thr202/Tyr204) signal was normalized with the GAPDH signal and percent of DMSO control values were calculated. IC50 values were generated using a 4 parameter fit of the dose response curve. Key: “A”: ≤1 μM, “B”>1 μM and N.D.=not determined.

POC (normalized percent of control, covalent modification of KRas G12C) (KRas G12C [1]) | IC50 (KRas G12C [2]) [nM] | POC (normalized percent of control, covalent modification of KRas G12C) (KRas G12C [1]; 5 µM) | SMILES
90% of control | > 1000 |  | C=CC(=O)N1CC(CN2C(=O)COc3cc(-c4cccc5ccccc45)c(Cl)cc32)C1 [Example 21, 4-((1-acryloylazetidin-3-yl)methyl)-6-chloro-7-(naphthalen-1-yl)-2H-benzo[b][1,4]oxazin-3(4H)-one]
104% of control | ≤ 1000 |  | C=CC(=O)N1CC(CN2C(=O)COc3cc(-c4cc(O)cc5ccccc45)c(Cl)cc32)C1 [Example 1, 4-((1-acryloylazetidin-3-yl)methyl)-6-chloro-7-(3-hydroxynaphthalen-1-yl)-2H-benzo[b][1,4]oxazin-3(4H)-one]
 | > 1000 | 53% of control | C=CC(=O)N1CC(CN2C(=O)COc3cc(-c4c(C)ccc5[nH]ncc45)c(Cl)cc32)C1 (single isomer, unassigned) [Example 10]
